From patent EP0375449B1, “Benzopyran-type compounds” (BEECHAM GROUP PLC, priority 1988, dated 1990)
One block for each compound: values may come before it.

Legend:
[1] = test system: Spontaneously hypertensive rats; test: Antihypertensive activity: systolic blood pressure by tail cuff method; assay type: in vivo; conditions: maximum at 1-4 hours post dose
Experimental: Systolic blood pressures were recorded by a modification of the tail cuff method described by I.M. Claxton, M.G. Palfreyman, R.H. Poyser, R.L. Whiting, European Journal of Pharmacology, 37, 179 (1976). A W+W BP recorder, model 8005 was used to display pulses. Prior to all measurements rats were placed in a heated environment (33.5 ± 0.5 °C) before transfer to a restraining cage. Each determination of blood pressure was the mean of at least 5 readings. Spontaneously hypertensive rats (ages 12-18 weeks) with systolic blood pressures >180 mmHg were considered hypertensive.

trachea = test: Bronchodilator activity: relaxation of isolated tracheal spirals; assay type: tissue-based, guinea pigs; conditions: Cavia porcellus; fall in resting tension as percentage of total relaxation evoked by 10⁻³M isoprenaline; guinea pig tracheal spirals, Krebs solution 37°C; read-out: IC₅₀
Experimental: Male guinea pigs (300-600g) were stunned by a blow to the head and bled from the carotid artery. The trachea was exposed, dissected free of connective tissue, and transferred to oxygenated Krebs solution at 37 °C. Next, spirals (2 per trachea) were prepared by cutting the whole trachea spirally along its longitudinal axis and then dividing this spiral lengthwise. Each preparation was mounted, using silk thread, in a 10ml organ bath filled with krebs solution at 37 °C and bubbled with 5% CO₂ with O₂. The resting tension of the preparations was set at 2g and changes in muscle tension were monitored isometrically by means of a UFI (2oz) force and displacement transducer (Ormed Ltd) connected to a Linseis pen recorder. All preparations were allowed to equilibrate for 60 minutes. During this equilibration period the preparations were washed by upward displacement at 15 minute intervals and, if necessary, the resting tension was readjusted to 2g using a mechanical micromanipulator system.
Once a steady resting tension had been obtained, the preparations were dosed simultaneously with the test compound (10⁻⁸-2x10⁻⁵M), and finally a maximum relaxation achieved by addition of 10⁻³M isoprenaline. The fall in tension evoked by the test compound was expressed as a percentage of the total relaxation evoked in the presence of 10⁻³ isoprenaline. […]

Compound: CC(C)(C)OC(=O)N[C@H]1[C@H](O)c2cc(C#N)ccc2OC1(C)C (relative stereo) [Example E1, trans-6-Cyano-2,2-dimethyl-3,4-dihydro-3-(t-butoxycarbonyl)amino-2H-1-benzopyran-4-ol]
% b.p. fall ([1]; Dose 3.0 mg/kg): 30%

Compound: CC1(C)Oc2ccc(C#N)cc2[C@@H](O)[C@@H]1NC(=O)c1ccc(F)cc1 (relative stereo) [Example E3, trans-6-Cyano-2,2-dimethyl-3,4-dihydro-3-(4-fluorobenzoylamino)-2H-1-benzopyran-4-ol]
% b.p. fall ([1]; Dose 3.0 mg/kg): 42%

IC50 (trachea): 2800 nM
Compound: CC(C)(C)NC(=O)N[C@H]1[C@H](O)c2cc(C#N)ccc2OC1(C)C (relative stereo) [Example E5, trans-6-Cyano-2,2-dimethyl-3,4-dihydro-3-(t-butylureido)-2H-1-benzopyran-4-ol]
% b.p. fall ([1]; Dose 0.3 mg/kg): ≧40%

Compound: CC(C)NC(=O)N[C@H]1[C@H](O)c2cc(C#N)ccc2OC1(C)C (relative stereo) [Example E14, trans-6-Cyano-2,2-dimethyl-3,4-dihydro-3-(isopropylureido)-2H-1-benzopyran-4-ol]
% b.p. fall ([1]; Dose 0.3 mg/kg): 22%

Compound: CC(C)(C)C(=O)N[C@H]1[C@H](O)c2cc(C#N)ccc2OC1(C)C (relative stereo) [Example E21, trans-6-Cyano-2,2-dimethyl-3,4-dihydro-3-trimethylacetylamino-2H-1-benzopyran-4-ol]
% b.p. fall ([1]; Dose 1.0 mg/kg): 36%
